“Also recorded” adds a separate entry of the source.
Experiments:
[1] = test system: mouse cortical neuron-enriched cultures; assay: RNA-seq transcriptional screen with hierarchical clustering and cluster membership; assay type: cell-based; conditions: 24 h at non-toxic concentration; hierarchical clustering of 5,121 variably expressed genes
Method: Cultures were treated with the non-cytotoxic dose of each chemical, by exchanging half of the original medium with chemicals at 2 × concentration in prewarmed feeding medium, on DIV 7 for 24 h in 12-well plates at a density of 5 × 10^5 cells per well. RNA was isolated using RNeasy plus mini kit (Cat. #74134, Qiagen). RNA yield and quality were determined using a Nanodrop 1000 Spectrophotometer (Thermo Scientific). Samples were further assessed for quality using either an Agilent Bioanalyzer 2100 or TapeStation 2200 to obtain a RIN. RIN values exceeding 7 were used for sequencing. RNA samples were used to generate and barcode complementary DNA libraries using the TruSeq RNA Library Preparation Kit at the UNC High Throughput Sequencing Facility. Pools of 24 multiplexed samples were sequenced per lane on an Illumina HiSeq 2500 using 50-bp paired-end reads.
RNA-seq reads were filtered using TagDust and aligned to the reference mouse genome (mm9) with TopHat using default parameters. Reads aligning to ribosomal RNA genes were removed. Transcript abundance was estimated by computing Reads per kilobase per million mapped reads (RPKM) using RefSeq gene models aggregated by gene symbol. For differential expression analyses, raw counts over RefSeq exons were used, and then were compared across samples using DESeq[62].
RPKMs for all RefSeq genes and all samples were filtered such that a given gene had >90% of samples with RPKM >0 and gene length exceeded 500 bp. RPKMs were then log10-transformed, quantile-normalized, median-centred, and the effects due to culture or sequencing batch were removed using a mixed model analysis of variance. This batch correction step was performed on individual experiments rather than chemical–vehicle ratios to reduce the effects due to variations in culture composition as well as batch-to-batch variations at the level of sequencing. Genes were then median-centred again, and filtered such that their s.d. exceeded 0.1. Chemical replicates were then combined using the median. Classes of chemicals were then discovered in two ways. First, we performed hierarchical clustering using average linkage and Pearson correlation distance measures. The boundaries of the discovered classes from clustering were set by computing pairwise Spearman correlations for all samples. A given cluster had to have at least three members with the minimum pairwise Spearman correlation coefficient exceeding 0.2, though cluster members often exceeded a correlation of 0.6 (Supplementary Fig. 5c,d). Seven chemical clusters were discovered, however one was removed due to failing to have a positive silhouette width, a metric of cluster robustness. These definitions enabled the three positive control topoisomerase inhibitors to form a cohesive group of chemicals with known structural and functional similarity (cluster 5). None of the culture or sequencing batches contributed to the formation of any one of the final six clusters (Supplementary Fig. 4).

[2] = test system: Rest, Gsta4, Gstm1, Hmox1 transcripts in cortical cultures; assay: Quantitative real-time PCR of cluster 2 upregulated genes; assay type: cell-based, mouse; conditions: fenamidone 10 μM or indicated doses, 24 h, relative to vehicle
Method: Total RNA was extracted and purified using the RNeasy plus mini kit (Qiagen) following the manufacturer's instructions. RNA was quantified using Nanodrop 1000 (Thermo Scientific) and reverse transcribed using iScript Reverse Transcription Supermix (Bio-Rad). Quantitative real-time PCR analysis was performed in technical duplicates using SYBR Green PCR master mix (Applied Biosystems) in a 7500 Real-Time PCR instrument (Applied Biosystems). An amount of 10 ng of complementary DNA was used in each reaction. Fold change of expression of the target RNA in each treatment condition relative to the untreated sample were calculated by raising 2 to the power of −ΔΔCt. ΔΔCt was calculated by subtracting the ΔCt of the untreated sample to the ΔCt of each treatment condition. The ΔCt of each sample was calculated by subtracting the average Ct of Gapdh to the average Ct of the target RNA. The following primers were used at a final concentration of 0.5 μM:
Rest (F: 5′-[…]-3′, R: 5′-[…]-3′); Gsta4 (F: 5′-[…]-3′, R: 5′-[…]-3′); Gstm1 (F: 5′-[…]-3′, R: 5′-[…]-3′); Hmox1 (F: 5′-[…]-3′, R: 5′-[…]-3′); and Gapdh (F: 5′-[…]-3′, R: 5′-[…]-3′).

[3] = test system: mitochondrial superoxide in cortical neurons; assay: Mitochondrial superoxide detection (MitoSOX Red live-cell imaging); assay type: cell-based, mouse; conditions: 2 h treatment, MitoSOX, vincristine 500 µM in Supplementary Fig. 10b
[4] = test system: cortical neurons; assay: Soma morphology (proportion of cells with altered soma morphology) in live-cell imaging; assay type: cell-based, mouse; conditions: 2 h treatment, vincristine 500 µM in Supplementary Fig. 10c
[5] = test system: purified tubulin; assay: Tubulin polymerization assay (cell-free, BK011P); assay type: biochemical; conditions: 37 °C, fluorescence over 60 min, equimolar doses
[6] = test system: mouse cortical neuron cultures; assay: Fluorescence immunocytochemistry for cellular composition (NeuN, Gfap, Iba1); assay type: cell-based; conditions: 10 μM, 24 h, relative to vehicle
[7] = test system: mouse cortical neuron cultures; conditions: mouse, 24 h, 10 µM
[8] = in vivo; cited from earlier work

## CSC1=N[C@@](C)(c2ccccc2)C(=O)N1Nc1ccccc1 [fenamidone]
[1]
  Chemical cluster assigned by gene expression: cluster 2
[2]
  Expression of Nrf2 target antioxidant response genes and Rest (qRT-PCR validation): Upregulated
[3]
  Mitochondrial superoxide (O2−) production: dose dependent
[3]; listed as Fenamidone
  Mitochondrial superoxide (O2−) production: concentration-dependent increase
[4]
  Soma swelling / aberrant cell morphology: dose dependent
[4]; listed as Fenamidone
  Soma swelling / aberrant cell morphology: swelling of neuronal soma
[5]
  Effect on tubulin polymerization: did not impair
[6]
  Change in cellular composition (number of NeuN, Gfap or Iba1 positive cells): did not; also recorded: no significant change
[7]
  % Dead cells (vehicle subtracted): 1.638%
[8]
  Neurotoxicity in a set of assays used by regulatory agencies: No evidence of neurotoxicity

Reference: publication PMC4821887, “Identification of chemicals that mimic transcriptional changes associated with autism, brain aging and neurodegeneration” (Nature Communications, 2016)
